How the values were obtained:
[1] = tested on: L-02 human-derived healthy liver cell line
[2] = Toxicity in tumor-bearing nude mice (peripheral blood test, organ pathology)
[3] = tested on: Akt/FoxO3a/Bim signaling pathway in CCRF-CEM cells; experiment: Western blot of Akt/FoxO3a/Bim signaling pathway proteins in CCRF-CEM cells; type: cell-based, human
Procedure: (§1) The control group was not added with any reagents. All experiments were performed in triplicate.
Protein detection by Western blot: in the examples of the present invention, Akt antibody (rabbit derived), phosphorylated Akt antibody (rabbit derived), FoxO3a antibody (rabbit derived), phosphorylated FoxO3a antibody (rabbit derived) and GAPDH antibody (rabbit derived) and secondary antibodies were all purchased from CST company. The cells were collected in a centrifuge tube and centrifuged at 1000 rpm, the supernatant was discarded and the cells were washed twice with PBS pre-cold at 4° C.; cell lysis buffer (150 mM NaCl, 1% NP-40, 0.1% SDS, 2 μg/ml Aprotinin, 2 μg/ml Leupeptin, 1 mM PMSF, 1.5 mM EDTA, 1 mM sodium vanadate) was added and the cells were lysed on ice for 40 minutes, the cell lysate was centrifuged at 20000 rpm, 4° C. for 15 minutes, and the supernatant was collected; a protein loading buffer for sodium dodecyl sulfate polyacrylamide (SDS-PAGE) gel electrophoresis (1.25 mL 1MTris-HCl (pH6.8), 0.5 g SDS, 25 mg BPB, 2.5 mL glycerol, 5 mL deionized water) was added, followed by boiling for 5 minutes to denature proteins; the loading buffer containing denatured proteins was applied to 10% SDS-PAGE for electrophoresis at 120 V, and then transferred to a PVDF membrane (Sangon Biotech (Shanghai) Co., Ltd.) at 130 V for 1.5 hours; after the membrane transfer was completed, the PVDF membrane was immediately rinsed with a Western washing solution (150 mmol/L NaCl, 50 mmol/L Tris-HCl (pH 7.5)) for 1-2 minutes; added with 5% non-fat milk powder (Shanghai Biotechnology Co., Ltd.), agitated gently and then blocked at room temperature for 60 minutes; a primary antibody diluted appropriately with 5% non-fat milk powder was added, and incubated overnight at room temperature with gentle agitating; the primary antibody was recovered and the membrane was washed three times with the washing solution for 5-10 minutes each; a horseradish peroxidase-labeled secondary antibody diluted appropriately with the Western washing solution was added, and incubated at room temperature for 1 hour with gentle agitating; the secondary antibody was recovered and the membrane was washed three times with the Western washing solution for 5-10 minutes each. An appropriate amount of developing solution (DAB 4 mg, 30% hydrogen peroxide 15 μL, 0.01 M Tris-Cl (pH 7.5) 5 mL) was dropped on the PVDF membrane, the image was detected using a bioluminescence image colorimeter and a gel imaging system (Thermo company), and the quantitative analysis of bands was performed using Image Lab software.
(§2) The cells were cultured in RPMI 1640 complete medium (Gibco company) containing 10% fetal bovine serum (FBS, Gibco company) in an incubator (Thermo company) at 5% CO2 and 37° C. until reaching logarithmic growth phase, then different concentrations of inhibitors and/or dexamethasone/ethanol/DMSO were added to the culture medium, followed by further culturing (for addition of dexamethasone/ethanol/DMSO, for 48 hours, and for addition of inhibitor, for 24 hours), and apoptosis was detected by Annexin V-FITC PI double staining and proteins were detected by Western blot, as described in Example 1.
Methods: CCRF-CEM cells were cultured in RPMI 1640 complete medium (Gibco company) containing 10% fetal bovine serum (FBS, Gibco company) in an incubator (Thermo company) at 5% CO2 and 37° C. until reaching logarithmic growth phase, then DMSO, dexamethasone and different inhibitors (DMSO: 0.1%, dexamethasone: 0.1 μM, inhibitors: 0.8 μM) were added to the culture medium, and further cultured (for addition of dexamethasone or DMSO, for 48 hours, and for addition of inhibitors, for 24 hours), and the proteins were detected by Western blot, as described in Example 1.

Jurkat cells = experiment: Apoptosis by Annexin V-FITC PI double staining, Jurkat; type: cell-based, human; conditions: compared to the only/single dexamethasone group; FIG. 2F, 4J
Procedure: (§3) Apoptosis was detected by Annexin V-FITC PI double staining method (flow cytometry kit (FITC, PI double staining), Sangon Biotech (Shanghai) Co., Ltd.)), and the collected cells were washed once with phosphate buffered saline (PBS) (135 mM NaCl, 2.7 mM KCl, 1.5 mM KH2PO4 and 8 mM K2HPO4, pH 7.2); the 4× binding buffer was diluted to a 1× binding buffer with deionized water, then the cells were resuspended with 195 ul of the 1× binding buffer at a cell density of 2-5×10^5/ml; 5 μl of Annexin V-FITC was added to the 195 μl of the cell resuspension and mixed, and incubated in dark at room temperature for 10 minutes; the cells were washed once with 200 μl of the 1× binding buffer, and then resuspended in 190 μl of the 1× binding buffer; 10 μl of propidium iodide (20 μg/ml) was added. A flow cytometry device (Beckman company) was used for detection, and the rate of apoptosis was analyzed using Summit software.
as §2
(§4) As described in Example 3, the cells were cultured in RPMI 1640 complete medium containing 10% fetal bovine serum under 5% CO2 and 37° C. until reaching logarithmic growth phase, and then dexamethasone and different concentrations of Akt inhibitor were added to the culture medium, followed by further culture (for addition of dexamethasone/DMSO, for 48 hours, and for addition of the inhibitor, for 24 hours), the apoptosis was detected by Annexin V-FITC PI double staining method and proteins were detected by Western blot as described in Example 1 as well as the cell viability was detected by CCK-8 method.
The transfected cells were selected and passaged for 3 to 5 passages after resuscitation, with Interferin™ as transfection reagent, and the transfection procedure was performed in accordance with the instruction of the transfection reagent. In short, the cells of logarithmic growth phase were plated at 2×10^5/well, the cells were replaced with fresh complete medium (free of antibiotics) during transfection, siRNA was diluted with Opti-MEM and added with an appropriate amount of […]in™ and mixed, incubated at room temperature for 10 minutes prior to being added dropwise to the cells, and the cells were harvested at appropriate time. The cells were transfected with green fluorescein-labeled siRNA (FAM-siRNA) (siRNA at a final concentration of 20 μM, 1.25 μl/well), and the transfection efficiency was observed using a fluorescence microscope 24 hours later. The dexamethasone group was added 24 hours after transfection, followed by culture for further 24 hours, and then the cells were collected for observation; and the equal amount of anhydrous ethanol was added to the control group.

Daudi cells [4] = experiment: Apoptosis by Annexin V-FITC PI double staining, Daudi; type: cell-based, human; conditions: compared to the dexamethasone group; FIG. 2K, 4L
Procedure: as §3
as §2, with “1. […]” for “1.”

[5] = tested on: L-02 human-derived healthy liver cell line; experiment: CCK-8 viability of healthy liver cells L-02; conditions: FIG. 6A
Daudi cells [6] = experiment: Cell viability by CCK-8 and combination index, Daudi; type: cell-based, human; conditions: B lymphoma cells; as shown in Table 1
Procedure: as §4
The inhibitory effect of two drugs (dexamethasone and an inhibitor) alone and in combination on various lymphocyte lines was observed by CCK-8 method (CCK-8 kit), and then the half-inhibitory concentration of each drug was calculated using the median effect equation, and the combination index (CI) of the two drugs used in combination was calculated using CompuSyn software.
(1) the lymphocytes of logarithmic growth phase were taken and made to a cell suspension of 5×10^4/mL, a blank control group (5 wells), a dexamethasone group (3 wells for each concentration, triplicates), a single inhibitor group (3 wells for each concentration, triplicates), a dexamethasone plus inhibitor group (3 wells for each combined concentration, triplicates) were prepared, 180 μL of the suspension was seeded to each well of a 96-well plate, and incubated for 24 hours in an incubator at 5% CO2 and 37° C.
Based on the drug resistance of cells, the ratio of two drugs was fixed. The dexamethasone group was cultured for 48 hours while the inhibitor group was cultured for 24 hours.
(3) 10 μl of CCK-8 was added to each well, and cultured for 2 hours, and the optical density (OD) was measured at 450 nm using an automatic microplate reader, and the proliferation inhibition rate of the drug on cell was calculated.
(4) the proliferation inhibition rate was calculated according to the following equation: cell proliferation inhibition rate=(1-average OD value in the test group/average OD value in the control group)×100%, and the effect of interaction between the two drugs was analyzed by Chou-Talalay combination index method.

[7] = mouse, in vivo
[8] = tested on: CCRF-CEM tumor-bearing mice; experiment: Glucocorticoid sensitization in CCRF-CEM tumor-bearing nude mice; type: in vivo
Procedure: The overall survival time, tumor size and spleen cell apoptosis of the tumor-bearing mice were measured, and the pathological HE staining was carried out to tumors.
The overall survival, tumor size and spleen size of the tumor-bearing mice were measured, the pathological sections of tumor were for HE and Ki-67 staining, and the pathological sections of spleen were for HE, CD3, and TdT staining.

Molt4 cells = experiment: Apoptosis by Annexin V-FITC PI double staining, Molt4; type: cell-based, human; conditions: compared to the only dexamethasone group; FIG. 2E
Procedure: as §3, with “software. […]” for “software.”

SP2/0 cells = experiment: Apoptosis by Annexin V-FITC PI double staining, SP2/0; type: cell-based, mouse; conditions: compared to dexamethasone alone; FIG. 2M
Procedure: as §3, with “software. […]” for “software.”

Raji cells = experiment: Apoptosis by Annexin V-FITC PI double staining, Raji; type: cell-based, human; conditions: compared to dexamethasone alone; FIG. 2K, 2N
Procedure: as §3, with “software. […]” for “software.”

CCRF-CEM cells = experiment: Apoptosis by Annexin V-FITC PI double staining (flow cytometry), CCRF-CEM; type: cell-based, human
Procedure: as §1, §3, §2, §4

[9] = CCRF-CEM, inhibitors 0.8 μM, FIG. 5A

With `O=c1[nH]c2ccccc2n1C1CCN(Cc2ccc(-c3nc4cc5nc[nH]c5cc4nc3-c3ccccc3)cc2)CC1` [Akti-1/2] the “recovery of liver cell activity” value [1] was “gradually recovered after 24 hours of administration”, the “liver pathology (HE staining)” value ([2]; 7-day administration, FIG. 8A, 8B) was “did not cause morphological changes of the liver tissues” and the “level of TBIL” value ([2]; compared to the NC group, FIG. 6I) was “significantly increased”. The “level of peripheral blood AST” value ([2]; compared to the normal saline group (NC), FIG. 3F, 6H) was “significantly increased”, the “level of peripheral blood ALT” value ([2]; compared to the normal saline group (NC), i.p. 7 days, FIG. 3F, 6G) was “significantly increased” and the “expression of p-Akt1” value [3, 9] was “reduced”. For the same compound, the “expression of p-Akt2” value [3, 9] was “reduced”, the “apoptosis of Jurkat cells, inhibitor in combination with dexamethasone” value (Jurkat cells) was “significantly increase” and the “apoptosis of Daudi cells, inhibitor in combination with dexamethasone” value (Daudi cells [4]) was “significantly increase”. The “damage to liver cells” value ([5]; DEX 0.1 μM, inhibitors 0.8 μM) was “certain damage”, the liver cell activity ([5]; after 12 hours of administration) was 50.5% and the “effect of inhibitor in combination with dexamethasone in B lymphoma cells (in words)” value (Daudi cells [6]) was “moderate synergistic effect”.

In the case of `CC[n+]1c(/C=C/N(C)c2ccccc2)n(-c2ccccc2)c2ccc(-c3nc4ccccc4s3)cc21.[I-]` [Akt IV], the liver toxicity [7] was “obvious liver toxicity”, the “size of subcutaneous tumor” value ([8]; Akt inhibitor 1.25 μg/mouse plus dexamethasone 0.1 mg/mouse i.p. once daily 7 days, vs single dexamethasone group, FIG. 3A, 3B) was “synergized with dexamethasone to reduce the size of subcutaneous tumor” and the “overall survival of tumor-bearing mice” value ([8]; Akt inhibitor in combination with dexamethasone vs single dexamethasone group, FIG. 3D) was “significantly increased”. The “apoptosis of spleen lymphocytes in the tumor-bearing mice” value ([8]; Akt inhibitor plus dexamethasone vs single dexamethasone group, FIG. 3E) was “significantly increased”, the “expression of pro-apoptosis factor Bim, inhibitor plus dexamethasone” value ([3]; compared to the only dexamethasone group, FIG. 2B, 2H) was “up-regulated” and the “expression of phosphorylated FoxO3a, inhibitor plus dexamethasone” value ([3]; compared to the only dexamethasone group, FIG. 2B, 2H, 2I) was “significantly down-regulated”. The “apoptosis of Jurkat cells, inhibitor in combination with dexamethasone” value (Jurkat cells) was “significantly increased”, the “apoptosis rate of Molt4 cells, inhibitor in combination with dexamethasone” value (Molt4 cells) was “significantly increased” and the “apoptosis of SP2/0 cells, inhibitor in combination with dexamethasone” value (SP2/0 cells) was “significantly increased”. The “apoptosis of Raji cells, inhibitor in combination with dexamethasone” value (Raji cells) was “significantly increased”, the “sensitization effect to glucocorticoids compared with other cell proliferation pathway inhibitors” value (CCRF-CEM cells; CCRF-CEM, in combination with dexamethasone, FIG. 2L) was “strongest effect of inducing apoptosis in combination with dexamethasone” and the “apoptosis rate of CCRF-CEM cells, different concentrations of Akt inhibitor in combination with dexamethasone” value (CCRF-CEM cells; FIG. 2C) was “increased along with the increased concentration of the Akt inhibitor”. The “apoptosis of CCRF-CEM cells induced by dexamethasone, inhibitor plus dexamethasone” value (CCRF-CEM cells; compared to dexamethasone alone, FIG. 2A: Akt inhibitor 1 μM, dexamethasone 1 μM, LY294002 30 μM, FIG. 2G, 2J, 2K) was “significantly increased”.
